Experimental data: US9598346B2, “Enantioselective process for the preparation of enantiomers of sex pheromones” (COUNCIL OF SCIENTIFIC AND INDUSTRIAL RESEARCH, priority 2013, dated 2017)
Where two headings read alike, the source gives them in different places.

Experiments:
[1] = tested on: male mealybugs (long-tailed mealybug); conditions: 25 μg, field trials, cited from earlier work
[2] = tested on: male long tailed mealybugs (P. longispinus); experiment: Field bioassay of the pheromone enantiomers and the racemate (delta sticky traps); type: in vivo, Pseudococcus longispinus; conditions: for attractiveness to male mealybugs (trap catches): traps 6 d + 11 d
Procedure: FIG. 1 depicts Male long tailed mealybugs caught in traps baited with each of the enantiomers of the pheromone, and the racemate. No mealybugs were caught in solvent treated controls.
(The field trials on vineyards were conducted with the help of Prof. Jocelyn Millar, University of California, Riverside, USA)
A field bioassay of the pheromone was conducted at a nursery in Bonsall, Calif., USA, in a 0.49 ha plot of Ruscus hypoglossum L. (plot coordinates: 33°17′18.36″ N, 117°16′55.61″ W elev 113 m) that was known to be infested with P. longispinus. The plot was divided into seven hoop houses (63 m long×7 m wide), six of which were used in this study. Each house (block) was covered in plastic with open ends. Airflow between houses was not restricted because the plastic cover began 1 m above the plant canopy. Four delta sticky traps were spaced every 12.5 m along a transect within each house, suspended directly above the ruscus canopy. Each trap contained an 11 mm gray rubber septum impregnated with a hexane solution of one of four treatments: solvent control, 5 μg of (S)-(+)-enantiomer, 5 μg of (R)-(−)-enantiomer, 10 μg of the racemate. Treatments were assigned randomly along each transect. Traps were replaced, and treatments were repositioned once after 6 d. Traps remained in place for another 11 d. Trap count data were analyzed by analysis of variance after √(x+0.5) transformation of the data to meet the assumptions of normality and equal variances. Differences among means were tested using Tukey's honestly significant differences (HSD) test. There was no significant interaction between the two sampling periods (date) and the treatments (F=3.23, df=2, 30, and P=0.054). Thus, data for each date were combined for the final analysis. There was both a significant effect of date (F=10.19, df=2, 32, P=0.0032) and treatment (F=130.04, df=2, 32, P<0.0001). Controls were not included in the analysis because their zero values and lack of variance violate the assumptions of ANOVA.

[3] = 5 μg enantiomer on rubber septum in delta sticky trap, nursery plot of Ruscus hypoglossum

Structure (SMILES)	attractiveness to male mealybugs and its duration ([1]; listed as racemic form of the pheromone)	attractiveness to male mealybugs and its duration ([1]; listed as racemic pheromone)	attractiveness to male mealybugs (trap catches) ([2]; 10 μg of the racemate on rubber septum in delta sticky trap)	attractiveness to male mealybugs (trap catches) [2, 3]	attractiveness to male mealybugs (trap catches) ([2]; 5 μg enantiomer on rubber septum in delta sticky trap, nursery plot of Ruscus hypoglossum, listed as (+)1)	inhibitory effect of the enantiomer on attraction ([2]; inferred from racemate (10 μg) versus pure enantiomer (5 μg))
CC(=O)OCCC1(C)C=CCC1(C)C (racemic) [racemate (±1), 2-(1,5,5-trimethylcyclopent-2-en-1-yl) ethyl acetate]	sufficient to attract mealy bug for three months	highly attractive to male mealybugs for more than three months	as attractive as the pure enantiomer			
CC(=O)OCC[C@@]1(C)C=CCC1(C)C [(S)-(+)-enantiomer, (+) 2-(1,5,5-trimethylcyclopent-2-en-1-yl)ethyl acetate]				highly attractive	more activity than racemic pheromone	
CC(=O)OCC[C@]1(C)C=CCC1(C)C [(R)-(−)-enantiomer, (−) 2-(1,5,5-trimethylcyclopent-2-en-1-yl)ethyl acetate]				only slightly more attractive than solvent-treated controls		not inhibitory
